Laboratory results reported in paper PMC1976805, “Preclinical pharmacokinetics of benznidazole” (British Journal of Cancer, 1984).
Read-outs that look alike come from different tables or passages of the source.

Key:
plasma proteins = assay: In vivo plasma protein binding in dogs (plasma ultrafiltrate); conditions: dog; for fraction unbound: plasma
From the text: (§1) Br. J. Cancer (1984), 50, 291-303 Preclinical pharmacokinetics of benznidazole P. Workman', R.A.S. White2, M.I. Walton', L.N. Owen2* & P.R. Twentyman' 1MRC Clinical Oncology and Radiotherapeutics Unit, MRC Centre, Hills Road, Cambridge CB2 2QH, and 2Department of Clinical Veterinary Medicine, University of Cambridge, Madingley Road, Cambridge CB3 OES, UK. […] We have investigated the detailed pharmacokinetics of benznidazole in mice, dogs and sheep to provide a data base for the estimation of doses required for chemosensitization in man. Pharmacokinetic behaviour was linear except at high doses in mice. Absorption was fairly rapid and bioavailability was complete following both i.p. administration in mice and oral administration in dogs. Elimination t4 values were longer than for MISO, being 90 min in mice, 4-5 h in sheep and 9-11 h in dogs. At doses giving linear kinetics, peak whole plasma concentrations per administered mgkg-1 were 0.75 jigml-1 for the i.p. route in mice and 1.8jugmlP' for the oral route in dogs. Though between 39 and 59% of plasma benznidazole was bound to protein, tissue penetration was generally good. Tissue/whole plasma ratios ranged from 59-99% for transplantable mouse tumours and from 14-70% for spontaneous dog neoplasms. Nervous tissue penetration was similar to that in tumours: brain/whole plasma ratios averaged between 61 and 76% in mice and 42% in dogs, while peripheral nerve/whole plasma ratios in dogs averaged 74%. Mean liver/whole plasma ratios were 42% and 71% in BALB/c and C3H/He mouse strains respectively. Only -5% of the administered dose was excreted unchanged in the urine, indicating the likelihood of extensive metabolism. […] Enhancement of CCNU response is likely to require circulating benznidazole concentrations of 10-30 pgml-1 and we predict that these will be obtained with oral doses of 6-20 mgkg- 1 in man. […] This enhancement, or chemosensitization, is usually greater than that seen in dose-limiting normal tissues, resulting in an improved therapeutic index. Because of the relatively high doses of MISO usually required for chemosensitization in mice (see above refs), and also because of its neurotoxicity in man (Dische et al., 1977), we have been interested in finding an improved chemosensitizer. […] The lipophilic ana- logue benznidazole (N-benzyl-(2-nitroimidazolyl) acetamide, Ro 07-1051; Radanil; Roche), the structure of which is shown in Figure 1, was selected for detailed study because of its ability to *Present address: Animal Health Trust, Small Animals Centre, Lanwades Park, Kennett, Newmarket, Suffolk CB8 7PN, UK. Correspondence: P. Workman. […] These findings have been confirmed independently by Siemann et al. (1983). Although benznidazole is used quite widely in South America to treat patients with the trypanosomal infection Chagas' disease or with mucotaneous Leishmaniasis (Barclay et al., 1978; Cerisola et al., 1978; Coura et al., 1978; Fava et al., 1978), apart from our preliminary studies (White et al., 1982) the only published data on its pharmaco- kinetics are for human plasma concentrations measured by polarography (Raaflub & Ziegler, 1979; Raaflub, 1980). Here we describe the pharmacokinetics of benznidazole in the mouse, sheep and dog, as determined by high-performance liquid chromatography (HPLC). […] The Macmillan Press Ltd., 1984 292 P. WORKMAN et al. particularly on plasma and tumour concentrations, have been used as a basis for the estimation of the benznidazole doses required in a Phase I trial of benznidazole plus CCNU, at present ongoing in our Unit. Materials and methods Animals and tumours Adult inbred male BALB/c mice were obtained from OLAC (Southern) Ltd. (Bicester, UK) and adult inbred C3H/He mice of both sexes from OLAC and our own breeding colony. Mice were housed in plastic cages on sawdust bedding made from soft white woods, and allowed laboratory chow and water ad lib. They were used at 20-35 g body wt.

[1] = 24 h urinary recovery of unchanged drug in mice; assay type: in vivo, mouse; conditions: for dose excreted: male, BALB/c, mouse, urine, ip, 650 mg kg-1, BALB/c mice, 650 mg kg-1 i.p.
From the text: Br. J. Cancer (1984), 50, 291-303 Preclinical pharmacokinetics of benznidazole P. Workman', R.A.S. White2, M.I. Walton', L.N. Owen2* & P.R. Twentyman' 1MRC Clinical Oncology and Radiotherapeutics Unit, MRC Centre, Hills Road, Cambridge CB2 2QH, and 2Department of Clinical Veterinary Medicine, University of Cambridge, Madingley Road, Cambridge CB3 OES, UK. […] We have investigated the detailed pharmacokinetics of benznidazole in mice, dogs and sheep to provide a data base for the estimation of doses required for chemosensitization in man. Pharmacokinetic behaviour was linear except at high doses in mice. Absorption was fairly rapid and bioavailability was complete following both i.p. administration in mice and oral administration in dogs. Elimination t4 values were longer than for MISO, being 90 min in mice, 4-5 h in sheep and 9-11 h in dogs. At doses giving linear kinetics, peak whole plasma concentrations per administered mgkg-1 were 0.75 jigml-1 for the i.p. route in mice and 1.8jugmlP' for the oral route in dogs. Though between 39 and 59% of plasma benznidazole was bound to protein, tissue penetration was generally good. Tissue/whole plasma ratios ranged from 59-99% for transplantable mouse tumours and from 14-70% for spontaneous dog neoplasms. Nervous tissue penetration was similar to that in tumours: brain/whole plasma ratios averaged between 61 and 76% in mice and 42% in dogs, while peripheral nerve/whole plasma ratios in dogs averaged 74%. […] Although benznidazole is used quite widely in South America to treat patients with the trypanosomal infection Chagas' disease or with mucotaneous Leishmaniasis (Barclay et al., 1978; Cerisola et al., 1978; Coura et al., 1978; Fava et al., 1978), apart from our preliminary studies (White et al., 1982) the only published data on its pharmaco- kinetics are for human plasma concentrations measured by polarography (Raaflub & Ziegler, 1979; Raaflub, 1980). Here we describe the pharmacokinetics of benznidazole in the mouse, sheep and dog, as determined by high-performance liquid chromatography (HPLC). […]

[2] = Penetration into brain and peripheral nerve in dogs; assay type: in vivo, dog; conditions: 25 mg kg-1 oral; for Kp: collie crossbred, 25 mg kg-1, two crossbred dogs; for Kp / Kp at 4 h / Kp at 1 h / Kp at 2 h / Kp at 3 h: dog, po
From the text: as §1

[3] = set-up: method as in earlier work; conditions: patients, 5 mg kg-1 day-1 for 30 days, side effects incl. peripheral neuropathy observed in these studies, ref Barclay et al., 1978, Cerisola et al., Coura et al., Fava et al.; cited from earlier work

O=C(Cn1ccnc1[N+](=O)[O-])NCc1ccccc1 [benznidazole, N-benzyl-(2-nitroimidazolyl) acetamide]
fraction unbound (plasma proteins; beagle, po, 50 mg kg-1, dog E, 50 mg kg-1 oral, full time course, read-out: protein binding (mean+s.e., n=8) (converted)): 0.45 | fraction unbound (plasma proteins; beagle, po, 50 mg kg-1, dog F, 50 mg kg-1 oral, full time course, read-out: protein binding (mean+s.e., n=8) (converted)): 0.48 | fraction unbound (plasma proteins; collie crossbred, beagle, iv, dogs, apart from the two i.v. time courses, read-out: in vivo protein binding, range): 0.41 to 0.48 | fraction unbound (plasma proteins; collie crossbred, iv, 5 mg kg-1, dog C, 5 mg kg-1 i.v., full time course, read-out: protein binding (mean+s.e., n=8) (converted)): 0.28 | fraction unbound (plasma proteins; collie crossbred, iv, 5 mg kg-1, dog D, 5 mg kg-1 i.v., full time course, read-out: protein binding (mean+s.e., n=8) (converted)): 0.26 | fraction unbound (plasma proteins; collie crossbred, po, 25 mg kg-1, dog A, 25 mg kg-1 oral, mean of 4 and 5 h values, read-out: protein binding (converted)): 0.47 | fraction unbound (plasma proteins; collie crossbred, po, 25 mg kg-1, dog B, 25 mg kg-1 oral, mean of 4 and 5 h values, read-out: protein binding (converted)): 0.41 | fraction unbound (plasma proteins; collie crossbred, po, 25 mg kg-1, dog C, 25 mg kg-1 oral, mean of 4 and 5 h values, read-out: protein binding (converted)): 0.45 | fraction unbound (plasma proteins; collie crossbred, po, 25 mg kg-1, dog D, 25 mg kg-1 oral, mean of 4 and 5 h values, read-out: protein binding (converted)): 0.47 | binding to plasma proteins (plasma proteins; discussion summary): 59% | dose excreted ([1]; experiment 1): 4.8% | dose excreted ([1]; experiment 2): 5.2% | administered dose excreted unchanged in the urine ([1]; summary value): approximately 5% | Kp ([2]; brain, 1-4 h, read-out: brain/whole plasma ratio, overall mean (s.e., n=8)): 0.42 | Kp ([2]; peripheral nerve, 1-4 h, read-out: peripheral nerve/whole plasma ratio, mean (s.e., n=7)): 0.74 | brain concentration ([2]; dog G, 1 h): 1.1 µg/g | peripheral nerve concentration ([2]; dog G, 1 h): 1.3 µg/g | plasma concentration ([2]; dog G, 1 h): 3100 ng/mL | brain concentration ([2]; dog G, 2 h): 1.5 µg/g | peripheral nerve concentration ([2]; dog G, 2 h): 3.4 µg/g | plasma concentration ([2]; dog G, 2 h): 3800 ng/mL | brain concentration ([2]; dog G, 3 h): 2.1 µg/g | plasma concentration ([2]; dog G, 3 h): 4300 ng/mL | brain concentration ([2]; dog G, 4 h): 1.1 µg/g | peripheral nerve concentration ([2]; dog G, 4 h): 4.0 µg/g | plasma concentration ([2]; dog G, 4 h): 4100 ng/mL | brain concentration ([2]; dog H, 1 h): 11.6 µg/g | peripheral nerve concentration ([2]; dog H, 1 h): 14.0 µg/g | plasma concentration ([2]; dog H, 1 h): 23100 ng/mL | brain concentration ([2]; dog H, 2 h): 10.0 µg/g | peripheral nerve concentration ([2]; dog H, 2 h): 15.5 µg/g | plasma concentration ([2]; dog H, 2 h): 22200 ng/mL | brain concentration ([2]; dog H, 3 h): 8.5 µg/g | peripheral nerve concentration ([2]; dog H, 3 h): 14.7 µg/g | plasma concentration ([2]; dog H, 3 h): 18700 ng/mL | brain concentration ([2]; dog H, 4 h): 7.9 µg/g | peripheral nerve concentration ([2]; dog H, 4 h): 15.6 µg/g | plasma concentration ([2]; dog H, 4 h): 18500 ng/mL | Kp at 4 h ([2]; brain, 25 mg kg-1, dog H, 4 h, read-out: brain/plasma ratio): 0.43 | Kp at 1 h ([2]; brain/plasma, 25 mg kg-1, dog G, 1 h, read-out: brain/plasma ratio): 0.35 | Kp at 2 h ([2]; brain/plasma, 25 mg kg-1, dog G, 2 h, read-out: brain/plasma ratio): 0.39 | Kp at 3 h ([2]; brain/plasma, 25 mg kg-1, dog G, 3 h, read-out: brain/plasma ratio): 0.49 | Kp at 4 h ([2]; brain/plasma, 25 mg kg-1, dog G, 4 h, read-out: brain/plasma ratio): 0.26 | Kp at 1 h ([2]; brain/plasma, 25 mg kg-1, dog H, 1 h, read-out: brain/plasma ratio): 0.5 | Kp at 2 h ([2]; brain/plasma, 25 mg kg-1, dog H, 2 h, read-out: brain/plasma ratio): 0.45 | Kp at 3 h ([2]; brain/plasma, 25 mg kg-1, dog H, 3 h, read-out: brain/plasma ratio): 0.45 | Kp at 3 h ([2]; peripheral nerve, 25 mg kg-1, dog H, 3 h, read-out: peripheral nerve/plasma ratio): 0.78 | Kp at 4 h ([2]; peripheral nerve, 25 mg kg-1, dog H, 4 h, read-out: peripheral nerve/plasma ratio): 0.84 | Kp at 1 h ([2]; peripheral nerve/plasma, 25 mg kg-1, dog G, 1 h, read-out: peripheral nerve/plasma ratio): 0.41 | Kp at 2 h ([2]; peripheral nerve/plasma, 25 mg kg-1, dog G, 2 h, read-out: peripheral nerve/plasma ratio): 0.9 | Kp at 4 h ([2]; peripheral nerve/plasma, 25 mg kg-1, dog G, 4 h, read-out: peripheral nerve/plasma ratio): 0.96 | Kp at 1 h ([2]; peripheral nerve/plasma, 25 mg kg-1, dog H, 1 h, read-out: peripheral nerve/plasma ratio): 0.6 | Kp at 2 h ([2]; peripheral nerve/plasma, 25 mg kg-1, dog H, 2 h, read-out: peripheral nerve/plasma ratio): 0.7 | brain/whole plasma ratio, overall mean (s.e., n=8) ([2]; two crossbred dogs, 1-4 h): 42+3% | peripheral nerve/whole plasma ratio, mean (s.e., n=7) ([2]; two crossbred dogs, 1-4 h): 74+7% | tolerability [3]: well tolerated
